System: human hepatocytes
Test: Metabolic stability in hepatocytes
Format: in vitro ADME
Conditions: 1 μM, 1×10^6 cells/mL, 0-240 min
In short: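 Cryopreserved human hepatocytes at 1×10^6 cells/mL in DMEM were exposed to 1 μM compound (0.1% DMSO) for 0–240 min at 37 °C, 5% CO2. Parent loss quantified by LC-MS/MS; t1/2 = 0.693/k and CLint = k/cell density from semi-log % remaining versus time.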

Molecule N#Cc1ccc(COc2cccc(N3CCN(Cc4nc5ccc(C(=O)O)cc5n4Cc4cncs4)[C@H]4C[C@H]43)n2)c(F)c1 (single isomer, unassigned) [Compound 2, 2-((5-(6-((4-Cyano-2-fluorobenzyl)oxy)pyridin-2-yl)-2,5-diazabicyclo[4.1.0]heptan-2-yl)methyl)-1-(thiazol-5-ylmethyl)-1H-benzo[d]imidazole-6-carboxylic Acid] has a hHep t1/2 of over 8 h.

From patent publication US12410163B2, “Compounds as GLP-IR agonists” (Terns Pharmaceuticals, Inc., priority 2022, dated 2025)
